# Test results from ChEMBL document CHEMBL4811216, “Chemotherapy for human schistosomiasis: how far have we come? What's new? Where do we go from here?” (RSC Med Chem, 2020).
# What was measured:
# Schistosoma japonicum [1] = assay: Schistosomicidal-activity against adult Schistosoma japonicum at 10 uM incubated for 72 hrs by inverted microscopic method relative to control; type: functional
# Schistosoma mansoni [2] = assay: Antischistosomal activity against Schistosoma mansoni Liberian infected in NMRI mouse assessed as worm burden reduction at 200 mg/kg, po measured after 14 days relative to control; type: functional; design: scale not given: the % may be the effect or the level left; details: time 14 day
# Schistosoma mansoni [3] = assay: Antischistosomal activity against adult Schistosoma mansoni LE assessed as reduction in motor activity at 50 uM measured after 24 hrs by inverted microscopy relative to control; type: functional; design: scale not given: the % may be the effect or the level left
# [4] = biological target: T1, Protein deacetylase HDAC6 (Homo sapiens, UniProt Q9UBN7); assay: Inhibition of human HDAC6 using Z-Lys(Ac)-AMC as substrate by fluorimetric method
# T1 sequence (Q9UBN7 whole entry): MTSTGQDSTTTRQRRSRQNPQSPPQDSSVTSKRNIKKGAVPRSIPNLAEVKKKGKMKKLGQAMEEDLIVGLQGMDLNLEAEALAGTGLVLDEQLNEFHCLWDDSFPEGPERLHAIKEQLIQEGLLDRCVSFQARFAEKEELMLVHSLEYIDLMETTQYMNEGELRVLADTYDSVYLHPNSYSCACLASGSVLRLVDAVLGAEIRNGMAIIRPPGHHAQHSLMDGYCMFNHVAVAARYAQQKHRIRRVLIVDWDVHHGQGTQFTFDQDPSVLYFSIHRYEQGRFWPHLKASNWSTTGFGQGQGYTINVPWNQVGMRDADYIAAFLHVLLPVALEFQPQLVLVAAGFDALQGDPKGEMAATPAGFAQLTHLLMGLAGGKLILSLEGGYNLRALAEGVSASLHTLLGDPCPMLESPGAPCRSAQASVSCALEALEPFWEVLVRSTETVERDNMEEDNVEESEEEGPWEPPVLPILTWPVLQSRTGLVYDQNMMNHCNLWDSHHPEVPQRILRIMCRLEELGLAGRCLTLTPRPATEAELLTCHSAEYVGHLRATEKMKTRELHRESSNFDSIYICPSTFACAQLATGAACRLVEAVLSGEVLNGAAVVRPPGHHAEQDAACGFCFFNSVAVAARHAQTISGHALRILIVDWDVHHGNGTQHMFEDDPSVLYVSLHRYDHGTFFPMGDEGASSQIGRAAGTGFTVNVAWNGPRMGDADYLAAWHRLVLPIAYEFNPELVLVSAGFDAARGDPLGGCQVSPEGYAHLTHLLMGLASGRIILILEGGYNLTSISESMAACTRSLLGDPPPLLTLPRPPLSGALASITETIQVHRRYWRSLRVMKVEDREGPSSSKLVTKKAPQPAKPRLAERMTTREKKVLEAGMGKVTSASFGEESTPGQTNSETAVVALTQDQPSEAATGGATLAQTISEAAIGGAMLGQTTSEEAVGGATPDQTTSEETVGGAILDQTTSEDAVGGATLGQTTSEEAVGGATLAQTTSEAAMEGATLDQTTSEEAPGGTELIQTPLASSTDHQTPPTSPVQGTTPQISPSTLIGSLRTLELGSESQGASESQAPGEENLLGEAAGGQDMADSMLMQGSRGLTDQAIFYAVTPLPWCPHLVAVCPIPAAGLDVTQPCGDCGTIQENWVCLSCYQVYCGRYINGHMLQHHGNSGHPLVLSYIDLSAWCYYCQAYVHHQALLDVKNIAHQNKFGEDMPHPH
# Histone deacetylase 8 [5] = biological target: T2, Histone deacetylase 8 (Homo sapiens, UniProt Q9BY41); assay: Inhibition of human HDAC8 using Fluor de Lys as substrate by fluorimetric method
# T2 sequence (Q9BY41 whole entry): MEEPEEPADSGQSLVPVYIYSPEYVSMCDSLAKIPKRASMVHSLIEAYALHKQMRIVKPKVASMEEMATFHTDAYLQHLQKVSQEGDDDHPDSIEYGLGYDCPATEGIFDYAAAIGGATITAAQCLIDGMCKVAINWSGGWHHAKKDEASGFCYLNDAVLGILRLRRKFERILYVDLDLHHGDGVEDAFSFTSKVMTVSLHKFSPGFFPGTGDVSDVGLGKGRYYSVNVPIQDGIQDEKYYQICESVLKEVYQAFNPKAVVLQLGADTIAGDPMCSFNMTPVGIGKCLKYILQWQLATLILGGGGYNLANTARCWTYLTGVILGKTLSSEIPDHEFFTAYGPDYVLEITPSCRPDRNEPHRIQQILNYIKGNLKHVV
# [6] = biological target: T3, HDAC1 (histone deacetylase 1) (Homo sapiens, UniProt Q13547); assay: Inhibition of human HDAC1 using Z-Lys(Ac)-AMC as substrate at 1 uM by fluorimetric method relative to control; details: HDAC1 enzyme, probe Z-Lys(Ac)-AMC
# Histone deacetylase 8 [7] = biological target: T4, Histone deacetylase 8 (Schistosoma mansoni, UniProt A5H660); assay: Inhibition of Schistosoma mansoni HDAC8 using fluorogenic substrate by fluorescence method
# T4 sequence (A5H660 whole entry): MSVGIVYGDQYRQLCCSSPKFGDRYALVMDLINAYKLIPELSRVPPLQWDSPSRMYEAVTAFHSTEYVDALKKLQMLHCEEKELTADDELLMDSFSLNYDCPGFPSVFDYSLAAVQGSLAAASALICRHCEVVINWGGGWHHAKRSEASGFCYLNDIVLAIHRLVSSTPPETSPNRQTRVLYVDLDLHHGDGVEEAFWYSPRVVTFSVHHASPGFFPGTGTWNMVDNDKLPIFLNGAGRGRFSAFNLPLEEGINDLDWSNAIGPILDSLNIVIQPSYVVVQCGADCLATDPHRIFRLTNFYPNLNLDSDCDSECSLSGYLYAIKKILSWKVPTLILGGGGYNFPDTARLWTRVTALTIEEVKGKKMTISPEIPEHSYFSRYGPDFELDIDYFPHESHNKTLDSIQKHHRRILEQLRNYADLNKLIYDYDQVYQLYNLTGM
# [8] = biological target: T3, HDAC1 (histone deacetylase 1); assay: Inhibition of human HDAC1 at 200 uM using Z-Lys(Ac)-AMC as substrate by fluorimetric method relative to control; details: HDAC1 enzyme, probe Z-Lys(Ac)-AMC
# Schistosoma japonicum [9] = assay: Antischistosomal activity against Schistosoma japonicum infected in ICR mouse assessed as total worm reduction at 250 mg/kg, po administered as single dose relative to control; type: functional; design: scale not given: the % may be the effect or the level left
# Schistosoma haematobium [10] = assay: Antischistosomal activity against Schistosoma haematobium assessed as worm death at 10 uM incubated for 120 hrs relative to control; type: functional
# Schistosoma mansoni [11] = assay: Antischistosomal activity against adult Schistosoma mansoni assessed as worm death at 10 uM incubated for 120 hrs relative to control; type: functional
# Schistosoma japonicum [12] = assay: Antischistosomal activity against Schistosoma japonicum assessed as worm death at 10 uM incubated for 120 hrs relative to control; type: functional; details: Schistosoma japonicum
# Schistosoma mansoni [13] = assay: Antischistosomal activity against Schistosoma mansoni Schistosomula assessed as worm death at 10 uM incubated for 24 hrs relative to control; type: functional
# [14] = biological target: T5, Thioredoxin glutathione reductase (Schistosoma mansoni, UniProt Q962Y6); assay: Inhibition of Schistosoma mansoni thioredoxin glutathione reductase incubated for 30 mins by DTNB assay
# T5 sequence (Q962Y6 whole entry): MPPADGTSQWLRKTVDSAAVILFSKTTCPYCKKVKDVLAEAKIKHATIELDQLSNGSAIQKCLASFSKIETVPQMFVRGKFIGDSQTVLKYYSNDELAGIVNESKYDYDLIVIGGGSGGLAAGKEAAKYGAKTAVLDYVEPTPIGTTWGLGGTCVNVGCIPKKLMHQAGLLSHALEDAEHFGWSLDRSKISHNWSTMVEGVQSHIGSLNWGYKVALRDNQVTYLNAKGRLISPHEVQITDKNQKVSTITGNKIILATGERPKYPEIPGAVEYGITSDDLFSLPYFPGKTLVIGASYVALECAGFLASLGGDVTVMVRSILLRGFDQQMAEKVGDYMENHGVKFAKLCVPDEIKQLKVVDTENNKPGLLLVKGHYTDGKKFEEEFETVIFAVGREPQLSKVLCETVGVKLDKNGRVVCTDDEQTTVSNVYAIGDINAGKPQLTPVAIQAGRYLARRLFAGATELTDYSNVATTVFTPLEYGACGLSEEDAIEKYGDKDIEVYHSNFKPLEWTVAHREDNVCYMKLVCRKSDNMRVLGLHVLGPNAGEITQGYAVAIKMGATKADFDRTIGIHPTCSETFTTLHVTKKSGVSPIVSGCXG
# Schistosoma mansoni [15] = assay: Antischistosomal activity against juvenile Schistosoma mansoni assessed as worm death at 10 uM incubated for 120 hrs relative to control; type: functional
# [16] = biological target: T6, Cathepsin B1 isotype 1 (Schistosoma mansoni) (UniProt Q8MNY2); assay: Inhibition of Schistosoma mansoni cathepsin B1 using Z-Phe-Arg-aminomethylcoumarin as substrate at 100 uM by fluorescence method relative to control
# T6 sequence (whole entry): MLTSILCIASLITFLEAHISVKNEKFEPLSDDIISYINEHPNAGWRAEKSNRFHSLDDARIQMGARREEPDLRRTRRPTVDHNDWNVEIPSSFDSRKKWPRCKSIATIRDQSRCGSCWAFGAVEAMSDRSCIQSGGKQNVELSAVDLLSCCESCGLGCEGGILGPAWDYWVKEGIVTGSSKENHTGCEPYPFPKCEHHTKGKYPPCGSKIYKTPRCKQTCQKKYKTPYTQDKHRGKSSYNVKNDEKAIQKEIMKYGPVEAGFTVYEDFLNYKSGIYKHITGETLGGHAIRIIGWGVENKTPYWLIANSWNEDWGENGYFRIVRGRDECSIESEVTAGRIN
# Schistosoma mansoni [17] = assay: microbe, parasite or virus in culture; details: Liberian, 72 h
# Description: Antischistosomal activity against Schistosoma mansoni Liberian NTS incubated for 72 hrs by microscopic method
# Schistosoma haematobium [18] = assay: Antischistosomal activity against Schistosoma haematobium at 10 uM measured after 72 hrs relative to control; type: functional
# Schistosoma mansoni [19] = assay: microbe, parasite or virus in culture; details: 72 h
# Description: Antischistosomal activity against Schistosoma mansoni incubated for 72 hrs by inverted microscopic method
# Schistosoma mansoni [20] = assay: Antischistosomal activity against Schistosoma mansoni infected in NMRI mouse assessed as worm burden reduction at 200 mg/kg, po administered as single dose and measured after 17 to 21 days relative to control; type: functional, organism-based; design: scale not given: the % may be the effect or the level left; details: time 17-21 day
# T3 sequence (Q13547 whole entry): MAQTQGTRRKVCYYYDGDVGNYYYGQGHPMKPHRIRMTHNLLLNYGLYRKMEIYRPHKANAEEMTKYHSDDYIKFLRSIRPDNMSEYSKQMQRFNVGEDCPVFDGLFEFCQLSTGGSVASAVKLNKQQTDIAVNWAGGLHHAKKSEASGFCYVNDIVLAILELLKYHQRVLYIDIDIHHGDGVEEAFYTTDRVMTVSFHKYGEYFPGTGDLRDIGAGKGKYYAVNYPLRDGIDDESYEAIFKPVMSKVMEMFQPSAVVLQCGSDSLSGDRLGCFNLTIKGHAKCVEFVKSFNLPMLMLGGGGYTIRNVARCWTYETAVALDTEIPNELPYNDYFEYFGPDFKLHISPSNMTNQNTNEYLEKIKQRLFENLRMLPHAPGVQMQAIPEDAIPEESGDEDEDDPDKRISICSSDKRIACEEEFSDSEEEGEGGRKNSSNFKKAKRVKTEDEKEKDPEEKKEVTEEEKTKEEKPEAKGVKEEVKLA
compound,measurement,setting,value
O=C(CCl)N1CC(=O)N2CCc3sccc3C2C1 (configuration not stated),Activity,Schistosoma japonicum [1],100%
O[C@H](c1cc(-c2ccc(C(F)(F)F)cc2)nc(C(F)(F)F)c1)[C@H]1CCCCN1,Activity,Schistosoma mansoni [2],>82%
COc1cc(C[C@@H]2C(=O)OC[C@H]2Cc2ccc3c(c2)OCO3)cc(OC)c1OC,Activity,Schistosoma mansoni [3],>75%
O=C(NO)c1cccc(C(=O)NOCc2ccc(Cl)cc2Cl)c1,IC50,[4],5120 nM
same,IC50,Histone deacetylase 8 [5],630 nM
same,inhibition at 1 µM,[6],< 10%
same,IC50,Histone deacetylase 8 [7],400 nM
same,inhibition at 200 µM,[8],47.5%
O=C(C1CCCCC1)N1CC(=O)N2CCc3ccccc3C2C1 (configuration not stated) [PRAZIQUANTEL],Activity,Schistosoma japonicum [1],37.5%
same,Activity,Schistosoma japonicum [9],62.4%
CN1CCN(NC(=O)c2cccc(C(=O)NO)c2)CC1,IC50,[4],7110 nM
same,IC50,Histone deacetylase 8 [5],1310 nM
same,inhibition at 1 µM,[6],< 10%
same,IC50,Histone deacetylase 8 [7],750 nM
same,inhibition at 200 µM,[8],15.3%
O=C1OC[C@@H](Cc2ccc3c(c2)OCO3)[C@@H]1Cc1ccc2c(c1)OCO2,Activity,Schistosoma mansoni [3],>75%
COc1ccc([N+](=O)[O-])c(S(=O)(=O)c2ccc(Cl)cc2)n1,mortality at 10 µM,Schistosoma haematobium [10],48%
same,mortality at 10 µM,Schistosoma mansoni [11],67%
same,mortality at 10 µM,Schistosoma japonicum [12],30%
same,mortality at 10 µM,Schistosoma mansoni [13],100%
same,IC50,[14],60 nM
same,mortality at 10 µM,Schistosoma mansoni [15],57%
O=C(c1ccc(CCl)c([N+](=O)[O-])c1)N1CCOCC1,inhibition,[16],< 27%
COc1ccc(Oc2ccc([C@H](C)N(C)c3ncc4c(N)nc(N)nc4n3)cc2)cc1,IC50,Schistosoma mansoni [17],16700 nM
same,Activity,Schistosoma haematobium [18],50.9%
same,IC50,Schistosoma mansoni [19],7900 nM
same,Activity,Schistosoma mansoni [20],32.8%
COc1ccc(C(Nc2cc(C)ccn2)c2ccc3ccc(C)nc3c2O)cc1 (configuration not stated),mortality at 10 µM,Schistosoma mansoni [11],53%
same,mortality at 10 µM,Schistosoma japonicum [12],56%
same,mortality at 10 µM,Schistosoma mansoni [13],20%
same,IC50,[14],130 nM
same,mortality at 10 µM,Schistosoma mansoni [15],24%
